Tests used:
[1] = system: birch pollen allergic patients; assay: Skin prick testing of allergic patients; type: in vivo, human
Experimental: SPTs were performed on the individuals forearms as described ([…]. et al. (1997) J. Clin Invest. 99, 1673-168; Dreborg S: (1989) J. Am. Acad. DerMatol. 21, 820-821). […] In addition standardized skin prick solutions (birch pollen extract and histamine) (Allergopharma, Reinbek, Germany) were tested. Reactions were recorded 20 minutes after SPT by photography and by transferring the ballpoint pen-surrounded wheal area with a scotch tape to paper.

[2] = system: IgE antibodies in sera from birch pollen allergic patients; assay: ELISA detection of peptide- and rBet v 1-specific IgE antibodies; type: binding, human
Experimental: Birch pollen allergic patients suffering from allergic rhinoconjunctivitis and/or asthma to birch pollen and related allergens were selected according to case history indicative for seasonal birch pollinosis and characterized by skin prick testing with birch pollen extract and serological CAP RAST (Pharmacia Diagnostics, Uppsala, Sweden) testing. Total IgE levels in the sera were determined by CAP RIST measurements (Pharmacia). […] Sera from 60 birch pollen allergic patients and a non-atopic individual were used for IgE competition studies. The birch pollen allergic patients group consisted of 25 males and 35 females with a mean age of 37 years (ranging from 19-60 years) (Table 2).
Subsequently, plates were incubated with 1:3 diluted sera from 60 birch pollen allergic patients and from a non-atopic individual overnight at 4° C. Bound IgE antibodies were detected with a 1:1000 diluted alkaline-phosphatase-coupled mouse monoclonal anti-human IgE antibody (Pharmingen, San Diego, Calif.).

Molecule: NCCc1c[nH]cn1 [histamine, reference compound]
- mean wheal diameter ([1]; individual 1, standardized skin prick solution): 5 mm
- mean wheal diameter ([1]; individual 2, standardized skin prick solution): 6 mm
- mean wheal diameter ([1]; individual 3, standardized skin prick solution): 7 mm
- mean wheal diameter ([1]; individual 4, standardized skin prick solution): 5 mm
- mean wheal diameter ([1]; individual 5, standardized skin prick solution): 5.5 mm
- mean wheal diameter ([1]; individual 6 (without birch pollen allergy), standardized skin prick solution): 4 mm
- immediate skin reaction ([1]; standardized skin prick solutions): All individuals reacted

Molecule: CGPGTIKKISFPEGFPFKYVKDRVDEVDHTN [Peptide P3, Bet v 1-derived synthetic peptide, position aa 50-79, one cysteine added]
- mean wheal diameter ([1]; individual 1, 100 μg/ml): 0 mm
- mean wheal diameter ([1]; individual 2, 100 μg/ml): 0 mm
- mean wheal diameter ([1]; individual 3, 100 μg/ml): 0 mm
- mean wheal diameter ([1]; individual 4, 100 μg/ml): 0 mm
- mean wheal diameter ([1]; individual 5, 100 μg/ml): 0 mm
- mean wheal diameter ([1]; individual 6 (allergic, without birch pollen allergy), 100 μg/ml): 0 mm
- IgE (OD) ([2]; serum of NHS, non-allergic control individual): — (Dashes indicate reactivities below the cut-off level (OD=0.050))
- IgE (OD) ([2]; serum of patient 1): — (Dashes indicate reactivities below the cut-off level (OD=0.050))
- IgE (OD) ([2]; serum of patient 2): — (Dashes indicate reactivities below the cut-off level (OD=0.050))
- IgE (OD) ([2]; serum of patient 3): — (Dashes indicate reactivities below the cut-off level (OD=0.050))
- IgE (OD) ([2]; serum of patient 4): — (Dashes indicate reactivities below the cut-off level (OD=0.050))
- IgE (OD) ([2]; serum of patient 5): — (Dashes indicate reactivities below the cut-off level (OD=0.050))
- IgE (OD) ([2]; serum of patient 6): — (Dashes indicate reactivities below the cut-off level (OD=0.050))
- IgE (OD) ([2]; serum of patient 7): — (Dashes indicate reactivities below the cut-off level (OD=0.050))
- IgE (OD) ([2]; serum of patient 8): — (Dashes indicate reactivities below the cut-off level (OD=0.050))
- IgE (OD) ([2]; serum of patient 9): — (Dashes indicate reactivities below the cut-off level (OD=0.050))
- IgE (OD) ([2]; serum of patient 10): — (Dashes indicate reactivities below the cut-off level (OD=0.050))
- IgE (OD) ([2]; serum of patient 11): — (Dashes indicate reactivities below the cut-off level (OD=0.050))
- IgE (OD) ([2]; serum of patient 12): — (Dashes indicate reactivities below the cut-off level (OD=0.050))
- IgE (OD) ([2]; serum of patient 13): — (Dashes indicate reactivities below the cut-off level (OD=0.050))
- IgE (OD) ([2]; serum of patient 14): — (Dashes indicate reactivities below the cut-off level (OD=0.050))
- IgE (OD) ([2]; serum of patient 15): — (Dashes indicate reactivities below the cut-off level (OD=0.050))
- IgE (OD) ([2]; serum of patient 16): — (Dashes indicate reactivities below the cut-off level (OD=0.050))
- IgE (OD) ([2]; serum of patient 17): — (Dashes indicate reactivities below the cut-off level (OD=0.050))
- IgE (OD) ([2]; serum of patient 18): — (Dashes indicate reactivities below the cut-off level (OD=0.050))
- IgE (OD) ([2]; serum of patient 19): — (Dashes indicate reactivities below the cut-off level (OD=0.050))
- IgE (OD) ([2]; serum of patient 20): — (Dashes indicate reactivities below the cut-off level (OD=0.050))
- IgE (OD) ([2]; serum of patient 21): — (Dashes indicate reactivities below the cut-off level (OD=0.050))
- IgE (OD) ([2]; serum of patient 22): — (Dashes indicate reactivities below the cut-off level (OD=0.050))
- IgE (OD) ([2]; serum of patient 23): — (Dashes indicate reactivities below the cut-off level (OD=0.050))
- IgE (OD) ([2]; serum of patient 24): — (Dashes indicate reactivities below the cut-off level (OD=0.050))
- IgE (OD) ([2]; serum of patient 25): — (Dashes indicate reactivities below the cut-off level (OD=0.050))
- IgE (OD) ([2]; serum of patient 26): — (Dashes indicate reactivities below the cut-off level (OD=0.050))
- IgE (OD) ([2]; serum of patient 27): — (Dashes indicate reactivities below the cut-off level (OD=0.050))
- IgE (OD) ([2]; serum of patient 28): — (Dashes indicate reactivities below the cut-off level (OD=0.050))
- IgE (OD) ([2]; serum of patient 29): — (Dashes indicate reactivities below the cut-off level (OD=0.050))
- IgE (OD) ([2]; serum of patient 30): — (Dashes indicate reactivities below the cut-off level (OD=0.050))
- IgE (OD) ([2]; serum of patient 31): — (Dashes indicate reactivities below the cut-off level (OD=0.050))
- IgE (OD) ([2]; serum of patient 32): — (Dashes indicate reactivities below the cut-off level (OD=0.050))
- IgE (OD) ([2]; serum of patient 33): — (Dashes indicate reactivities below the cut-off level (OD=0.050))
- IgE (OD) ([2]; serum of patient 34): — (Dashes indicate reactivities below the cut-off level (OD=0.050))
- IgE (OD) ([2]; serum of patient 35): — (Dashes indicate reactivities below the cut-off level (OD=0.050))
- IgE (OD) ([2]; serum of patient 36): — (Dashes indicate reactivities below the cut-off level (OD=0.050))
- IgE (OD) ([2]; serum of patient 37): — (Dashes indicate reactivities below the cut-off level (OD=0.050))
- IgE (OD) ([2]; serum of patient 38): — (Dashes indicate reactivities below the cut-off level (OD=0.050))
- IgE (OD) ([2]; serum of patient 39): — (Dashes indicate reactivities below the cut-off level (OD=0.050))
- IgE (OD) ([2]; serum of patient 40): — (Dashes indicate reactivities below the cut-off level (OD=0.050))
- IgE (OD) ([2]; serum of patient 41): — (Dashes indicate reactivities below the cut-off level (OD=0.050))
- IgE (OD) ([2]; serum of patient 42): — (Dashes indicate reactivities below the cut-off level (OD=0.050))
- IgE (OD) ([2]; serum of patient 43): — (Dashes indicate reactivities below the cut-off level (OD=0.050))
- IgE (OD) ([2]; serum of patient 44): — (Dashes indicate reactivities below the cut-off level (OD=0.050))
- IgE (OD) ([2]; serum of patient 45): — (Dashes indicate reactivities below the cut-off level (OD=0.050))
- IgE (OD) ([2]; serum of patient 46): — (Dashes indicate reactivities below the cut-off level (OD=0.050))
- IgE (OD) ([2]; serum of patient 47): — (Dashes indicate reactivities below the cut-off level (OD=0.050))
- IgE (OD) ([2]; serum of patient 48): — (Dashes indicate reactivities below the cut-off level (OD=0.050))
- IgE (OD) ([2]; serum of patient 49): — (Dashes indicate reactivities below the cut-off level (OD=0.050))
- IgE (OD) ([2]; serum of patient 50): — (Dashes indicate reactivities below the cut-off level (OD=0.050))
- IgE (OD) ([2]; serum of patient 51): — (Dashes indicate reactivities below the cut-off level (OD=0.050))
- IgE (OD) ([2]; serum of patient 52): — (Dashes indicate reactivities below the cut-off level (OD=0.050))
- IgE (OD) ([2]; serum of patient 53): — (Dashes indicate reactivities below the cut-off level (OD=0.050))
- IgE (OD) ([2]; serum of patient 54): — (Dashes indicate reactivities below the cut-off level (OD=0.050))
- IgE (OD) ([2]; serum of patient 55): — (Dashes indicate reactivities below the cut-off level (OD=0.050))
- IgE (OD) ([2]; serum of patient 56): — (Dashes indicate reactivities below the cut-off level (OD=0.050))
- IgE (OD) ([2]; serum of patient 57): — (Dashes indicate reactivities below the cut-off level (OD=0.050))
- IgE (OD) ([2]; serum of patient 58): — (Dashes indicate reactivities below the cut-off level (OD=0.050))
- IgE (OD) ([2]; serum of patient 59): — (Dashes indicate reactivities below the cut-off level (OD=0.050))
- IgE (OD) ([2]; serum of patient 60): — (Dashes indicate reactivities below the cut-off level (OD=0.050))

From US7244431B2, “Allergy vaccines and their preparation” (priority 2000, dated 2007)
